# Measurements as given in US20090029983A1, “NOVEL HETEROCYCLIC COMPOUNDS HAVING ANTI-HBV ACTIVITY” (priority 2005, published 2009).
# Test system: HBV
# Test: HBV screening assay (viral DNA in baculovirus-HBV transduced HepG2 cells)
# Format: cell-based
# Details: Hepatitis B virus, HepG2, 72 h, read-out: EC50 (antiviral activity), HBV-transduced HepG2 cells, three days with compound, viral DNA by ELISA
# Experimental: HepG2 cells were transduced using a baculovirus to deliver the HBV genome essentially as previously described (Delaney et al. in Hepatology 1998; 28: 1134-1146). Transduced cells were cultured in supplemented EMEM media with 10% fetal bovine serum in a 5% CO2 incubator at 37° C. for three days in the presence of test compounds. The cells were lysed in a buffer containing 0.5% NP-40 and […] proteinase K. A solid-phase hybridization was performed to capture the viral DNA and to label the target DNA with Digoxigenin-labeled DNA probes. The viral DNA was detected by ELISA, using horseradish peroxidase-conjugated anti-digoxigenin antibodies.
# The EC50 values were determined using ExcelFit software from the inhibition values of a titration curve for each compound. For CC50 determinations, the same titration of compounds was co-cultured with non-transduced HepG2 for three days under the conditions described above. The Promega CellTiter 96 Aqueous One Solution Cell Proliferation Assay was used to measure cell proliferation/viability. The CC50 values were determined using ExcelFit software from the inhibition values of the titration curve for each compound.
row,SMILES,EC50 [µM]
1,"C=CCC1CCCc2c1nc1sc(C(N)=O)c(N)c1c2-c1cccs1 (stereo not shown) [Compound 70, 8-Allyl-3-amino-4-thiophen-2-yl-5,6,7,8-tetrahydro-thieno[2,3-b]quinoline-2-carboxylic acid amide]",1 to 10
2,"CC(C)CCN1Cc2nc3sc(C(N)=O)c(N)c3c(-c3cccs3)c2C1 [Compound 6, 3-Amino-6-(3-methyl-butyl)-4-thiophen-2-yl-6,7-dihydro-5H-1-thia-6,8-diaza-s-indacene-2-carboxylic aicd amide]",> 10
3,"CC1CCCCN1CCCNC(=O)CC1CCc2c1nc1sc(C(N)=O)c(N)c1c2-c1cccs1 (stereo not shown) [Compound 58, 3-Amino-7-{[3-(2-methyl-piperidin-1-yl)-propylcarbamoyl]-methyl}-4-thiophen-2-yl-6,7-dihydro-5H-cyclopenta[b]thieno[3,2-e]pyridine-2-carboxylic acid amide]",> 10
4,"CN(C)C(=O)CC1CCc2c1nc1sc(C(N)=O)c(N)c1c2-c1cccs1 (stereo not shown) [Compound 49, 3-Amino-7-dimethylcarbamoylmethyl-4-thiophen-2-yl-6,7-dihydro-5H-cyclopenta[b]thieno[3,2-e]pyridine-2-carboxylic acid amide]",> 10
5,"NC(=O)c1sc2nc3c(c(-c4cccs4)c2c1N)CN(Cc1cccnc1)C3 [Compound 20, 3-Amino-6-pyridin-3-ylmethyl-4-thiophen-2-yl-6,7-dihydro-5H-1-thia-6,8-diaza-s-indacene-2-carboxylic acid amide]",< 1
6,"NC(=O)c1sc2nc3c(c(-c4cccs4)c2c1N)CN(C1=NCCS1)C3 [Compound 95, 3-Amino-6-(4,5-dihydro-thiazol-2-yl)-4-thiophen-2-yl-6,7-dihydro-5H-1-thia-6,8-diaza-s-indacene-2-carboxylic acid amide]",< 1
7,"NC(=O)c1sc2nc3c(c(-c4cccs4)c2c1N)CCCC3Cc1ccccc1 (stereo not shown) [Compound 64, 3-Amino-8-benzyl-4-thiophen-2-yl-5,6,7,8-tetrahydro-thieno[2,3-b]uinoline-2-carboxylic acid amide]",> 10
8,"NC(=O)c1sc2nc3c(c(-c4cccs4)c2c1N)CN(CCO)C3 [Compound 15, 3-Amino-6-(2-hydroxy-ethyl)-4-thiophen-2-yl-6,7-dihydro-5H-1-thia-6,8-diaza-s-indacene-2-carboxylic acid amide]",1 to 10
9,"NC(=O)c1sc2nc3c(c(-c4cccs4)c2c1N)CN(C(=S)NCCCc1ccccc1)C3 [Compound 86, 3-Amino-6-(3-phenyl-propylthiocarbamoyl)-4-thiophen-2-yl-6,7-dihydro-5H-1-thia-6,8-diaza-s-indacene-2-carboxylic acid amide]",1 to 10
10,"NC(=O)c1sc2nc3c(c(-c4cccs4)c2c1N)CCC3CC(=O)NCCCN1CCOCC1 (stereo not shown) [Compound 57, 3-Amino-7-[(3-morpholin-4-yl-propylcarbamoyl)-methyl]-4-thiophen-2-yl-6,7-dihydro-5H-cyclopenta[b]thiano[3,2-e]pyridine-2-carboxylic acid amide]",> 10
11,"NC(=O)c1sc2nc3c(c(-c4cccs4)c2c1N)CCC3CC(=O)N1CCOCC1 (stereo not shown) [Compound 38, 3-Amino-7-(2-morpholin-4-yl-2-oxo-ethyl)-4-thiophen-2-yl-6,7-dihydro-5H-cyclopenta[b]thieno[3,2-e]pyridine-2-carboxylic acid amide]",> 10
12,"COC(=O)CC1CCc2c1nc1sc(C(N)=O)c(N)c1c2-c1cccs1 (stereo not shown) [Compound 40, 3-Amino-7-carbomethoxymethyl-4-thiophen-2-yl-6,7-dihydro-5H-cyclopenta[b]thieno[3,2-e]pyridine-2-carboxylic acid amide]",> 10
13,"NC(=O)c1sc2nc3c(c(-c4cccs4)c2c1N)CCC3CC(=O)N1CCN(c2ccccn2)CC1 (stereo not shown) [Compound 53, 3-Amino-7-[2-oxo-2-(4-pyridin-2-yl-piperazin-1-yl)-ethyl]-4-thiophen-2-yl-6,7-dihydro-5H-cyclopenta[b]thieno[3,2-e]pyridine-2-carboxylic acid amide]",> 10
14,"Cc1ccsc1-c1c2c(nc3sc(C(N)=O)c(N)c13)CCCC2=O [Compound 75, 3-Amino-4-(3-methyl-thiophen-2-yl)-5-oxo-5,6,7,8-tetrahydro-thieno[2,3-b]quinoline-2-carboxylic acid amide]",< 1
15,"NC(=O)c1sc2nc3c(c(-c4cccs4)c2c1N)CCNC3 [Compound 29, 3-Amino-4-thiophen-2-yl-5,6,7,8-tetrahydro-1-thia-7,9-diaza-cyclopenta[b]naphthalene-2-carboxylic acidamide]",< 1
16,"NC(=O)c1sc2nc3c(c(-c4cccs4)c2c1N)CCC1CCCCC31 (stereo not shown) [Compound 107, 8-Amino-7-thiophen-2-yl-1,2,3,4,4a,5,6,11b-octahydro-10-thia-11-aza-cyclopenta[b]phenanthrene-9-carboxylic acid amide]",> 10

row,SMILES,EC50 [µM]
1,"CNC(=O)CC1CCc2c1nc1sc(C(N)=O)c(N)c1c2-c1cccs1 (stereo not shown) [Compound 42, 3-Amino-7-methylcarbamoylmethyl-4-thiophen-2-yl-6,7-dihydro-5H-cyclopenta[b]thieno[3,2-e]pyridine-2-carboxylic acid amide]",1 to 10
2,"CCOC(=O)CC1CCCc2c1nc1sc(C(N)=O)c(N)c1c2-c1cccs1 (stereo not shown) [Compound 71, 3-Amino-8-carbethoxymethyl-4-thiophen-2-yl-5,6,7,8-tetrahydro-thieno[2,3-b]quinoline-2-carboxylic acid amide]",> 10
3,"COC1CCCCN1CCCN1Cc2nc3sc(C(N)=O)c(N)c3c(-c3cccs3)c2C1 (stereo not shown) [Compound 26, 3-Amino-6-[3-(2-methoxy-piperidin-1-yl)-propyl]-4-thiophen-2-yl-6,7-dihydro-5H-1-thia-6,8-diaza-s-indacene-2-carboxylic acidamide]",> 10
4,"NC(=O)c1sc2nc3c(c(-c4cccs4)c2c1N)CN(C(=S)Nc1cc(Cl)cc(Cl)c1)C3 [Compound 89, 3-Amino-6-(3,5-dichloro-phenylthiocarbamoyl)-4-thiophen-2-yl-6,7-dihydro-5H-1-thia-6,8-diaza-s-indacene-2-carboxylic acid amide]",> 10
5,"NC(=O)c1sc2nc3c(c(-c4cccs4)c2c1N)CN(C(=O)Nc1ccccc1)C3 [Compound 96, 3-Amino-4-thiophen-2-yl-5,7-dihydro-1-thia-6,8-diaza-s-indacene-2,6-dicarboxylicacid 2-amide 6-phenylamide]",> 10
6,"NC(=O)c1sc2nc3c(c(-c4cccs4)c2c1N)CN(C(=O)c1ccc(N2CCOCC2)nc1)C3 [Compound 105, 3-Amino-6-(6-morpholin-4-yl-pyridine-3-carbonyl)-4-thiophen-2-yl-6,7-dihydro-5H-1-thia-6,8-diaza-s-indacene-2-carboxylicacid amide]",> 10
7,"NC(=O)c1sc2nc3c(c(-c4cccs4)c2c1N)CN(CC1CC1)C3 [Compound 8, 3-Amino-6-cyclopropylmethyl-4-thiophen-2-yl-6,7-dihydro-5H-1-thia-6,8-diaza-s-indacene-2-carboxylic acid amide]",> 10
8,"NC(=O)c1sc2nc3c(c(-c4cccs4)c2c1N)C(=O)CCC3 [Compound 76, 3-Amino-4-(thiophen-2-yl)-5-oxo-5,6,7,8-tetrahydro-thieno[2,3-b]quinoline-2-carboxylic acid amide]",1 to 10
9,"CC(O)CNCCCN1Cc2nc3sc(C(N)=O)c(N)c3c(-c3cccs3)c2C1 (stereo not shown) [Compound 28, 3-Amino-6-[3-(2-hydroxy-propylamino)-propyl]-4-thiophen-2-yl-6,7-dihydro-5H-1-thia-6,8-diaza-s-indacene-2-carboxylic acidamide]",> 10
10,"COc1cccc(NC(=S)N2Cc3nc4sc(C(N)=O)c(N)c4c(-c4cccs4)c3C2)c1 [Compound 85, 3-Amino-6-(3-methoxy-phenylthiocarbamoyl)-4-thiophen-2-yl-6,7-dihydro-5H-1-thia-6,8-diaza-s-indacene-2-carboxylic acid amide]",> 10
11,"NC(=O)c1sc2nc3c(c(-c4cccs4)c2c1N)CCC3C1CCCC1 (stereo not shown) [Compound 61, 3-Amino-7-cyclopentyl-4-thiophen-2-yl-6,7-dihydro-5H-cyclopenta[b]thieno[3,2-e]pyridine-2-carboxylic acid amide]",1 to 10
12,"CC(CO)CN1Cc2nc3sc(C(N)=O)c(N)c3c(-c3cccs3)c2C1 (stereo not shown) [Compound 13, 3-Amino-6-(3-hydroxy-2-methyl-propyl)-4-thiophen-2-yl-6,7-dihydro-5H--thia-6,8-diaza-s-indacene-2-carboxylic acid amide]",1 to 10
13,"NC(=O)c1sc2nc3c(c(-c4cccs4)c2c1N)CCC3CC(=O)NCc1ccccn1 (stereo not shown) [Compound 45, 3-Amino-7-{[(pyridin-2-ylmethyl)-carbamoyl]-methyl}-4-thiophen-2-yl-6,7-dihydro-5H-cyclopenta[b]thieno[3,2-e]pyridine-2-carboxylic acid amide]",> 10
14,"NC(=O)c1sc2nc3c(c(-c4cccs4)c2c1N)CN(C(=S)NC1CC1)C3 [Compound 91, 3-Amino-6-cyclopropylthiocarbamoyl-4-thiophen-2-yl-6,7-dihydro-5H-1-thia-6,8-diaza-s-indacene-2-carboxylic acid amide]",1 to 10
15,"NC(=O)c1sc2nc3c(c(-c4cccs4)c2c1N)CNC3 [Compound 2, 3-Amino-4-thiophen-2-yl-6,7-dihydro-5H-1-thia-6,8-diaza-s-indacene-2-carboxylic acidamide]",1 to 10
